Source: US20140024687A1, “Combinations of Vascular Disrupting Agents with Inhibitor of Apoptosis Proteins Antagonists” (priority 2009, published 2014)

How the values were obtained:
[1] = test system: MDA-MB-231 human breast cancer orthotopic xenograft; experiment: Single agent anti-tumor activity, MDA-MB-231 human breast cancer orthotopic xenograft (Example 1); assay type: in vivo, athymic nude mice; settings: day 71 post implantation; Compound B 150 mg/kg po qw days 50, 57, 64; Compound A 20 mg/kg iv days 50, 54, 58; p<0.05 compared to vehicle controls
Protocol: Treatment started on day 50 following orthotopic implantation of 7.5×10^6 MDA-MB-231 human breast cancer cells into the mammary fat pad. Starting tumor volume averaged 160 mm^3 (range=76 to 286); n=8/group. […] The vehicle for […] is 10% Tris-HCl buffer and 90% 1×PBS, Statistical analysis performed on delta tumor volumes on day 71 post implantation using a One-way ANOVA followed by a post hoc Tukey test.

human TNF = experiment: Human TNF in MDA-MB-231 tumor lysates after treatment; assay type: in vivo; settings: tumors collected 6 hrs after final dose; n=4, no statistical analysis
Description: (§1) Due to the small sample size (n=4), statistical analysis was not performed.

mouse TNF = experiment: Mouse TNF in MDA-MB-231 breast xenograft tissue after treatment; assay type: in vivo; settings: tumors collected 6 hrs after final dose; n=4, no statistical analysis
Description: as §1

[2] = test system: HS944.t human melanoma xenograft; settings: B 100 mg/kg po qw; A 15 mg/kg iv; combination; days 14 and 21
Protocol: Treatment started on day 14 following subcutaneous implantation of 5.0×10^6 Hs944.t human melanoma cancer cells in 50% basement membrane matrix. Starting tumor volume averaged 245 mm^3 (range=146 to 321); n=8/group. In this study, (s)—N—((S)-1-cyclohexyl-2-{(S)-2-[4-(4-fluoro-benzoyl)-thiazol-2-yl]-pyrrolidin-1-yl}-2-oxo-ethyl)-2-methylamino-propionamide was administered orally (po) at 100 mg/kg, qw, 5,6-dimethylxanthenone-4-acetic acid was administered intravenously (iv) at 15 mg/kg, or (S)—N—((S)-1-cyclohexyl-2-{(S)-2-[4-(4-fluoro-benzoyl)-thiazol-2-yl]-pyrrolidin-1-yl}-2-oxo-ethyl)-2-methylamino-propionamide and 5,6-dimethylxanthenone-4-acetic acid were administered in combination on days 14 and 21 post implantation, Vehicle control for (S)—N—((S)-1-cyclohexyl-2-{(S)-2-[4-(4-fluoro-benzoyl)-thiazol-2-yl]-pyrrolidin-1-yl}-2-oxo-ethyl)-2-methylamino-propionamide is 30% 0.1N HCl and 70% 100 mM sodium acetate buffer, pH 4.63, Vehicle control for 5,6-dimethylxanthenone-4-acetic acid is 10% 1× Tris-HCl and 90% 1×PBS, Statistical analysis performed on tumor volumes from day 14-27 post implantation using a repeated measures MANOVA test.

TNF mRNA = settings: Colon 38 tumor bearing mice (Joseph WR, 1999); cited from earlier work

SMILES	single agent anti-tumor activity (delta tumor volumes vs vehicle controls) [1]	human TNF in MDA-MB-231 tumor lysates (human TNF)	mouse TNF in xenograft tissue (mouse TNF)	surviving animals at study termination [2]	TNF mRNA in tumor, spleen, and liver (TNF mRNA)
CN[C@@H](C)C(=O)N[C@H](C(=O)N1CCC[C@H]1c1nc(C(=O)c2ccc(F)cc2)cs1)C1CCCCC1 [Compound B, (S)—N—((S)-1-Cyclohexyl-2-{(S)-2-[4-(4-fluoro-benzoyl)-thiazol-2-yl]-pyrrolidin-1-yl}-2-oxo-ethyl)-2-methylamino-propionamide]	demonstrated single agent anti-tumor activity	increase in human TNF	–	–	–
Cc1ccc2c(=O)c3cccc(CC(=O)O)c3oc2c1C [Compound A, 5,6-dimethylxanthenone-4-acetic acid]	demonstrated single agent anti-tumor activity	–	increase in mouse TNF	7/8	increase TNF mRNA
